In patent US9468209B2, “Method for eradicating weeds with derivatives of 3-acetyl-5-sec-butyl-4-hydroxy-3-pyrrolin-2-one” (priority 2012, dated 2016):

Columns and labels:
Experiment in all cases: Leaf piece damage test
Format in all cases: in vivo
Set-up in all cases: key: 4: The leaf completely dead; 3: Two third of the leaf withered; 2: One half of the leaf withered; 1: Only edge of the leaf withered; 0: Not damage at all
Conditions in all cases: 50 μg/mL, 4 days
Youngia japonica = system: Youngia japonica
Method: (§1) Compounds 7, 14, 15, 16, 40, 45, 48 and 53 were dissolved individually in small amount of methanol, and diluted with distilled water to concentration of 50 μg/mL. Methanol water solution and pure water were used as control. A piece of 5 mm leaf was taken from the second leaf of weed sample and was treated with the solution three times. 5 pieces of the leaf were prepared for each treatment. The damage data were collected 4 days later. The measurement of damage level is described in the Table 9.
(§2) The measurement of the plant damage was calculated by the formula: Damage Index=Σ(damage level×number of plants)×100/4/number of plants in each treatment.

Goose grass = system: Goose grass
Method: as §1, §2

[1] = system: Japanese false bindweed (Calystegia hederacea)
Method: as §1, §2

Polygonum lapathifolium = system: Polygonum lapathifolium
Method: as §1, §2

Japanese alopecurus = system: Japanese alopecurus
Method: as §1, §2

Commelina communis = system: Commelina communis
Method: as §1, §2

Abrtilon theophrasti = system: Abrtilon theophrasti
Method: as §1, §2

[2] = system: Aster ageratoides var. scaberulus
Method: as §1, §2

Crisium setosum = system: Crisium setosum
Method: as §1, §2

Veronica percica = system: Veronica percica
Method: as §1, §2

Chenopodium serotinum = system: Chenopodium serotinum
Method: as §1, §2

Duchesnea indica = system: Duchesnea indica
Method: as §1, §2

Leptochloa chinensis = system: Leptochloa chinensis
Method: as §1, §2

Perilla frutescens = system: Perilla frutescens
Method: as §1, §2

Commelina bengalensis = system: Commelina bengalensis
Method: as §1, §2

Cyperus difformis = system: Cyperus difformis
Method: as §1, §2

Galeopsis bifida = system: Galeopsis bifida
Method: as §1, §2

Carpesium abrotanoides = system: Carpesium abrotanoides
Method: as §1, §2

[3] = system: Crabgrass (Digitaria sanguinalis)
Method: as §1, §2

Acalypha australis = system: Acalypha australis
Method: as §1, §2

Equal alopecurus = system: Equal alopecurus
Method: as §1, §2

Polygonum hydropiper = system: Polygonum hydropiper
Method: as §1, §2

Row | SMILES | Damage level (Youngia japonica) | Damage level (Goose grass) | Damage level [1] | Damage level (Polygonum lapathifolium) | Damage level (Japanese alopecurus) | Damage level (Commelina communis) | Damage level (Abrtilon theophrasti) | Damage level [2] | Damage level (Crisium setosum) | Damage level (Veronica percica) | Damage level (Chenopodium serotinum) | Damage level (Duchesnea indica) | Damage level (Leptochloa chinensis) | Damage level (Perilla frutescens) | Damage level (Commelina bengalensis) | Damage level (Cyperus difformis) | Damage level (Galeopsis bifida) | Damage level (Carpesium abrotanoides) | Damage level [3] | Damage level (Acalypha australis) | also measured
1 | CCCCC1NC(=O)C(C(C)=O)=C1O (stereo not shown) [Compound 14] | 3 | 3 | 3 | 2 | 3 | 2 | 2 | 3 | 3 | 2 | 2 | 2 | 4 | 2 | 3 | 3 | 2 | 2 | 4 | 2 | Damage level (Equal alopecurus): 3; Damage level (Polygonum hydropiper): 2
2 | CCCCCC1NC(=O)C(C(C)=O)=C1O (stereo not shown) [Compound 15] | 3 | 3 | 3 | 2 | 3 | 2 | 2 | 3 | 3 | 2 | 2 | 3 | 4 | 3 | 3 | 3 | 2 | 2 | 4 | 2 | Damage level (Equal alopecurus): 3; Damage level (Polygonum hydropiper): 2
3 | CCCCCCC1NC(=O)C(C(C)=O)=C1O (stereo not shown) [Compound 16] | 3 | 3 | 4 | 2 | 3 | 3 | 3 | 4 | 3 | 2 | 2 | 2 | 4 | 2 | 3 | 3 | 2 | 2 | 4 | 2 | Damage level (Equal alopecurus): 3; Damage level (Polygonum hydropiper): 3
4 | CCCC(Cl)C1NC(=O)C(C(C)=O)=C1O (stereo not shown) [Compound 40] | 3 | 4 | 3 | 2 | 3 | 3 | 3 | 3 | 3 | 3 | 2 | 2 | 4 | 2 | 3 | 3 | 3 | 3 | 4 | 3 | Damage level (Equal alopecurus): 3; Damage level (Polygonum hydropiper): 2
5 | CCC(C)C1NC(=O)C(C(=O)CCF)=C1O (stereo not shown) [Compound 44] | 3 | 3 | 4 | 2 | 4 | 2 | 2 | 4 | 3 | 3 | 3 | 3 | 4 | 3 | 3 | 3 | 3 | 3 | 4 | 3 | Damage level (Equal alopecurus): 3; Damage level (Polygonum hydropiper): 3
6 | CCC(C)C1NC(=O)C(C(=O)CCc2cc(Cl)cc(Cl)c2)=C1O (stereo not shown) [Compound 48] | 3 | 3 | 4 | 2 | 4 | 4 | 3 | 4 | 4 | 3 | 3 | 3 | 4 | 2 | 4 | 4 | 2 | 4 | 4 | 3 | Damage level (Equal alopecurus): 4; Damage level (Polygonum hydropiper): 3
7 | CCCC(C#N)C1NC(=O)C(=C(C)O)C1=O (stereo not shown) [Compound 53] | 4 | 4 | 4 | 3 | 3 | 3 | 3 | 4 | 4 | 3 | 3 | 3 | 4 | 2 | 3 | 3 | 3 | 2 | 4 | 2 | Damage level (Equal alopecurus): 4; Damage level (Polygonum hydropiper): 3
